Experimental data: ChEMBL document CHEMBL5625277, “Systematical mutational analysis of teriparatide on anti-osteoporosis activity by alanine scanning” (Bioorg Med Chem Lett, 2024)

Experiment: Cytotoxicity in pre-osteoblasts (unknown origin) assessed as cell death upto 5 uM by CCK8 assay
Assay type: toxicity, cell-based
Details: pre-osteoblast

| SMILES | Activity |
| --- | --- |
| CC[C@H](C)[C@H](NC(=O)[C@H](CCC(=O)O)NC(=O)[C@H](CO)NC(=O)[C@@H](NC(=O)[C@H](CO)NC(C)=O)C(C)C)C(=O)N[C@@H](CCC(N)=O)C(=O)N[C@@H](CC(C)C)C(=O)N[C@@H](CCSC)C(=O)N[C@@H](Cc1cnc[nH]1)C(=O)N[C@@H](CC(N)=O)C(=O)N[C@@H](CC(C)C)C(=O)NCC(=O)N[C@@H](CCCCN)C(=O)N[C@@H](Cc1cnc[nH]1)C(=O)N[C@@H](CC(C)C)C(=O)N[C@@H](CC(N)=O)C(=O)N[C@@H](CO)C(=O)N[C@@H](CCSC)C(=O)N[C@@H](CCC(=O)O)C(=O)N[C@@H](CCCNC(=N)N)C(=O)N[C@H](C(=O)N[C@@H](CCC(=O)O)C(=O)N[C@@H](Cc1c[nH]c2ccccc12)C(=O)N[C@@H](CC(C)C)C(=O)N[C@@H](CCCNC(=N)N)C(=O)N[C@@H](CCCCN)C(=O)N[C@@H](CCCCN)C(=O)N[C@@H](CC(C)C)C(=O)N[C@@H](C)C(=O)N[C@@H](CC(=O)O)C(=O)N[C@H](C(=O)N[C@@H](Cc1cnc[nH]1)C(=O)N[C@@H](CC(N)=O)C(=O)N[C@@H](Cc1ccccc1)C(N)=O)C(C)C)C(C)C | Non-Toxic |
| CC[C@H](C)[C@H](NC(=O)[C@H](CCC(=O)O)NC(=O)[C@H](CO)NC(=O)[C@@H](NC(=O)[C@H](CO)NC(C)=O)C(C)C)C(=O)N[C@@H](CCC(N)=O)C(=O)N[C@@H](CC(C)C)C(=O)N[C@@H](CCSC)C(=O)N[C@@H](Cc1cnc[nH]1)C(=O)N[C@@H](CC(N)=O)C(=O)N[C@@H](CC(C)C)C(=O)NCC(=O)N[C@@H](CCCCN)C(=O)N[C@@H](Cc1cnc[nH]1)C(=O)N[C@@H](CC(C)C)C(=O)N[C@@H](CC(N)=O)C(=O)N[C@@H](C)C(=O)N[C@@H](CCSC)C(=O)N[C@@H](CCC(=O)O)C(=O)N[C@@H](CCCNC(=N)N)C(=O)N[C@H](C(=O)N[C@@H](CCC(=O)O)C(=O)N[C@@H](Cc1c[nH]c2ccccc12)C(=O)N[C@@H](CC(C)C)C(=O)N[C@@H](CCCNC(=N)N)C(=O)N[C@@H](CCCCN)C(=O)N[C@@H](CCCCN)C(=O)N[C@@H](CC(C)C)C(=O)N[C@@H](CCC(N)=O)C(=O)N[C@@H](CC(=O)O)C(=O)N[C@H](C(=O)N[C@@H](Cc1cnc[nH]1)C(=O)N[C@@H](CC(N)=O)C(=O)N[C@@H](Cc1ccccc1)C(N)=O)C(C)C)C(C)C | Non-Toxic |
| CC[C@H](C)[C@H](NC(=O)[C@H](CCC(=O)O)NC(=O)[C@H](CO)NC(=O)[C@@H](NC(=O)[C@H](CO)NC(C)=O)C(C)C)C(=O)N[C@@H](CCC(N)=O)C(=O)N[C@@H](CC(C)C)C(=O)N[C@@H](CCSC)C(=O)N[C@@H](Cc1cnc[nH]1)C(=O)N[C@@H](CC(N)=O)C(=O)N[C@@H](CC(C)C)C(=O)NCC(=O)N[C@@H](CCCCN)C(=O)N[C@@H](Cc1cnc[nH]1)C(=O)N[C@@H](CC(C)C)C(=O)N[C@@H](CC(N)=O)C(=O)N[C@@H](CO)C(=O)N[C@@H](CCSC)C(=O)N[C@@H](C)C(=O)N[C@@H](CCCNC(=N)N)C(=O)N[C@H](C(=O)N[C@@H](CCC(=O)O)C(=O)N[C@@H](Cc1c[nH]c2ccccc12)C(=O)N[C@@H](CC(C)C)C(=O)N[C@@H](CCCNC(=N)N)C(=O)N[C@@H](CCCCN)C(=O)N[C@@H](CCCCN)C(=O)N[C@@H](CC(C)C)C(=O)N[C@@H](CCC(N)=O)C(=O)N[C@@H](CC(=O)O)C(=O)N[C@H](C(=O)N[C@@H](Cc1cnc[nH]1)C(=O)N[C@@H](CC(N)=O)C(=O)N[C@@H](Cc1ccccc1)C(N)=O)C(C)C)C(C)C | Non-Toxic |
| CC[C@H](C)[C@H](NC(=O)[C@H](CCC(=O)O)NC(=O)[C@H](CO)NC(=O)[C@@H](NC(=O)[C@H](CO)NC(C)=O)C(C)C)C(=O)N[C@@H](CCC(N)=O)C(=O)N[C@@H](CC(C)C)C(=O)N[C@@H](CCSC)C(=O)N[C@@H](Cc1cnc[nH]1)C(=O)N[C@@H](CC(N)=O)C(=O)N[C@@H](CC(C)C)C(=O)NCC(=O)N[C@@H](CCCCN)C(=O)N[C@@H](Cc1cnc[nH]1)C(=O)N[C@@H](CC(C)C)C(=O)N[C@@H](CC(N)=O)C(=O)N[C@@H](CO)C(=O)N[C@@H](C)C(=O)N[C@@H](CCC(=O)O)C(=O)N[C@@H](CCCNC(=N)N)C(=O)N[C@H](C(=O)N[C@@H](CCC(=O)O)C(=O)N[C@@H](Cc1c[nH]c2ccccc12)C(=O)N[C@@H](CC(C)C)C(=O)N[C@@H](CCCNC(=N)N)C(=O)N[C@@H](CCCCN)C(=O)N[C@@H](CCCCN)C(=O)N[C@@H](CC(C)C)C(=O)N[C@@H](CCC(N)=O)C(=O)N[C@@H](CC(=O)O)C(=O)N[C@H](C(=O)N[C@@H](Cc1cnc[nH]1)C(=O)N[C@@H](CC(N)=O)C(=O)N[C@@H](Cc1ccccc1)C(N)=O)C(C)C)C(C)C | Non-Toxic |
| CC[C@H](C)[C@H](NC(=O)[C@H](CCC(=O)O)NC(=O)[C@H](CO)NC(=O)[C@@H](NC(=O)[C@H](CO)NC(C)=O)C(C)C)C(=O)N[C@@H](CCC(N)=O)C(=O)N[C@@H](CC(C)C)C(=O)N[C@@H](CCSC)C(=O)N[C@@H](Cc1cnc[nH]1)C(=O)N[C@@H](CC(N)=O)C(=O)N[C@@H](CC(C)C)C(=O)NCC(=O)N[C@@H](CCCCN)C(=O)N[C@@H](Cc1cnc[nH]1)C(=O)N[C@@H](CC(C)C)C(=O)N[C@@H](CC(N)=O)C(=O)N[C@@H](CO)C(=O)N[C@@H](CCSC)C(=O)N[C@@H](CCC(=O)O)C(=O)N[C@@H](CCCNC(=N)N)C(=O)N[C@H](C(=O)N[C@@H](CCC(=O)O)C(=O)N[C@@H](Cc1c[nH]c2ccccc12)C(=O)N[C@@H](CC(C)C)C(=O)N[C@@H](CCCNC(=N)N)C(=O)N[C@@H](CCCCN)C(=O)N[C@@H](CCCCN)C(=O)N[C@@H](CC(C)C)C(=O)N[C@@H](CCC(N)=O)C(=O)N[C@@H](CC(=O)O)C(=O)N[C@@H](C)C(=O)N[C@@H](Cc1cnc[nH]1)C(=O)N[C@@H](CC(N)=O)C(=O)N[C@@H](Cc1ccccc1)C(N)=O)C(C)C | Non-Toxic |
| CC[C@H](C)[C@H](NC(=O)[C@H](CCC(=O)O)NC(=O)[C@H](CO)NC(=O)[C@@H](NC(=O)[C@H](CO)NC(C)=O)C(C)C)C(=O)N[C@@H](CCC(N)=O)C(=O)N[C@@H](CC(C)C)C(=O)N[C@@H](CCSC)C(=O)N[C@@H](Cc1cnc[nH]1)C(=O)N[C@@H](CC(N)=O)C(=O)N[C@@H](CC(C)C)C(=O)NCC(=O)N[C@@H](CCCCN)C(=O)N[C@@H](Cc1cnc[nH]1)C(=O)N[C@@H](CC(C)C)C(=O)N[C@@H](CC(N)=O)C(=O)N[C@@H](CO)C(=O)N[C@@H](CCSC)C(=O)N[C@@H](CCC(=O)O)C(=O)N[C@@H](CCCNC(=N)N)C(=O)N[C@H](C(=O)N[C@@H](CCC(=O)O)C(=O)N[C@@H](C)C(=O)N[C@@H](CC(C)C)C(=O)N[C@@H](CCCNC(=N)N)C(=O)N[C@@H](CCCCN)C(=O)N[C@@H](CCCCN)C(=O)N[C@@H](CC(C)C)C(=O)N[C@@H](CCC(N)=O)C(=O)N[C@@H](CC(=O)O)C(=O)N[C@H](C(=O)N[C@@H](Cc1cnc[nH]1)C(=O)N[C@@H](CC(N)=O)C(=O)N[C@@H](Cc1ccccc1)C(N)=O)C(C)C)C(C)C | Non-Toxic |
| CC[C@H](C)[C@H](NC(=O)[C@H](CCC(=O)O)NC(=O)[C@H](CO)NC(=O)[C@@H](NC(=O)[C@H](CO)NC(C)=O)C(C)C)C(=O)N[C@@H](CCC(N)=O)C(=O)N[C@@H](CC(C)C)C(=O)N[C@@H](CCSC)C(=O)N[C@@H](C)C(=O)N[C@@H](CC(N)=O)C(=O)N[C@@H](CC(C)C)C(=O)NCC(=O)N[C@@H](CCCCN)C(=O)N[C@@H](Cc1cnc[nH]1)C(=O)N[C@@H](CC(C)C)C(=O)N[C@@H](CC(N)=O)C(=O)N[C@@H](CO)C(=O)N[C@@H](CCSC)C(=O)N[C@@H](CCC(=O)O)C(=O)N[C@@H](CCCNC(=N)N)C(=O)N[C@H](C(=O)N[C@@H](CCC(=O)O)C(=O)N[C@@H](Cc1c[nH]c2ccccc12)C(=O)N[C@@H](CC(C)C)C(=O)N[C@@H](CCCNC(=N)N)C(=O)N[C@@H](CCCCN)C(=O)N[C@@H](CCCCN)C(=O)N[C@@H](CC(C)C)C(=O)N[C@@H](CCC(N)=O)C(=O)N[C@@H](CC(=O)O)C(=O)N[C@H](C(=O)N[C@@H](Cc1cnc[nH]1)C(=O)N[C@@H](CC(N)=O)C(=O)N[C@@H](Cc1ccccc1)C(N)=O)C(C)C)C(C)C | Non-Toxic |
| CC[C@H](C)[C@H](NC(=O)[C@H](CCC(=O)O)NC(=O)[C@H](CO)NC(=O)[C@@H](NC(=O)[C@H](CO)NC(C)=O)C(C)C)C(=O)N[C@@H](CCC(N)=O)C(=O)N[C@@H](CC(C)C)C(=O)N[C@@H](CCSC)C(=O)N[C@@H](Cc1cnc[nH]1)C(=O)N[C@@H](CC(N)=O)C(=O)N[C@@H](CC(C)C)C(=O)NCC(=O)N[C@@H](CCCCN)C(=O)N[C@@H](Cc1cnc[nH]1)C(=O)N[C@@H](CC(C)C)C(=O)N[C@@H](CC(N)=O)C(=O)N[C@@H](CO)C(=O)N[C@@H](CCSC)C(=O)N[C@@H](CCC(=O)O)C(=O)N[C@@H](CCCNC(=N)N)C(=O)N[C@H](C(=O)N[C@@H](CCC(=O)O)C(=O)N[C@@H](Cc1c[nH]c2ccccc12)C(=O)N[C@@H](CC(C)C)C(=O)N[C@@H](CCCNC(=N)N)C(=O)N[C@@H](CCCCN)C(=O)N[C@@H](CCCCN)C(=O)N[C@@H](CC(C)C)C(=O)N[C@@H](CCC(N)=O)C(=O)N[C@@H](CC(=O)O)C(=O)N[C@H](C(=O)N[C@@H](C)C(=O)N[C@@H](CC(N)=O)C(=O)N[C@@H](Cc1ccccc1)C(N)=O)C(C)C)C(C)C | Non-Toxic |
| CC[C@H](C)[C@H](NC(=O)[C@H](CCC(=O)O)NC(=O)[C@H](CO)NC(=O)[C@@H](NC(=O)[C@H](CO)NC(C)=O)C(C)C)C(=O)N[C@@H](CCC(N)=O)C(=O)N[C@@H](CC(C)C)C(=O)N[C@@H](C)C(=O)N[C@@H](Cc1cnc[nH]1)C(=O)N[C@@H](CC(N)=O)C(=O)N[C@@H](CC(C)C)C(=O)NCC(=O)N[C@@H](CCCCN)C(=O)N[C@@H](Cc1cnc[nH]1)C(=O)N[C@@H](CC(C)C)C(=O)N[C@@H](CC(N)=O)C(=O)N[C@@H](CO)C(=O)N[C@@H](CCSC)C(=O)N[C@@H](CCC(=O)O)C(=O)N[C@@H](CCCNC(=N)N)C(=O)N[C@H](C(=O)N[C@@H](CCC(=O)O)C(=O)N[C@@H](Cc1c[nH]c2ccccc12)C(=O)N[C@@H](CC(C)C)C(=O)N[C@@H](CCCNC(=N)N)C(=O)N[C@@H](CCCCN)C(=O)N[C@@H](CCCCN)C(=O)N[C@@H](CC(C)C)C(=O)N[C@@H](CCC(N)=O)C(=O)N[C@@H](CC(=O)O)C(=O)N[C@H](C(=O)N[C@@H](Cc1cnc[nH]1)C(=O)N[C@@H](CC(N)=O)C(=O)N[C@@H](Cc1ccccc1)C(N)=O)C(C)C)C(C)C | Non-Toxic |
